test: in vitro; conditions: human, hela cells, % viability

SMILES	viability at 28.5 h, 10 µM [%]
CC(C)[C@@]1(C)SC(N[C@H]2C[C@H]3C[C@@H]2C[C@@H]3O)=NC1=O [CBK138400]	102
C[C@H](NC1=NC(=O)[C@@](C)(C(C)(C)O)S1)c1ccc(F)cc1 [CBK138436]	98.1
CC(=O)Nc1cccc(-c2cnc(NCc3ccc4c(c3)OCO4)c(C(=O)NCC3COc4ccccc4O3)c2)c1 (stereo not shown) [CBK138473T]	116
Nc1ccc(-c2cnc(NCc3ccc4c(c3)OCO4)c(C(=O)Nc3ccc4c(c3)OCCO4)c2)cc1 [CBK138480T]	106
Nc1ncc(-c2ccc(C(=O)N3CCOCC3)cc2)nc1-c1ccc(Cl)s1 [CBK138510]	93.6
CC(C)CCC(=O)Nc1ccc(N2CCN(C(=O)c3ccccc3C(F)(F)F)CC2)nn1 [CBK138629]	100
Cn1c(=O)[nH]c(=O)c2c1nc(N/N=C/c1cc(Br)ccc1O)n2CCO [CBK139415]	97.8
CC(C)OCC(O)Cn1c(N/N=C/c2ccccc2O)nc2c1c(=O)[nH]c(=O)n2C (stereo not shown) [CBK139853]	101
Cn1c(=O)c2c(nc(NCc3ccccc3)n2C)n(C)c1=O [CBK139872]	95.9
CC(C)n1c(NCc2ccccc2)nc2c1c(=O)n(C)c(=O)n2C [CBK140094]	78.2
Fc1ccc(C(c2nnnn2C2CCCCC2)N2CCCCC2)cc1 (stereo not shown) [CBK141670]	94.9
CN1CCN(C(c2cccs2)c2nnnn2C(C)(C)C)CC1 (stereo not shown) [CBK141702]	91.9
Cc1ccc(C)c(-n2nnnc2SCC(=O)c2ccc(Cl)cc2Cl)c1 [CBK141941]	98.1
CCOc1ccc(-n2nnnc2SCC(=O)c2ccc(Cl)c(Cl)c2)cc1 [CBK141942]	88.7
O=C(Nc1ccccc1C(F)(F)F)NC1CC2CCCC(C1)N2C1CC1 (stereo not shown) [CBK143578]	103
O=C(NCc1ccccc1)c1ccc2nc[nH]c2c1 [CBK143739]	91.9
CC(C)C(=O)N1CC2(CCN(CC3COc4ccccc4O3)CC2)c2ccccc21 (stereo not shown) [CBK143946]	98.2
O=C(CO)N1CC2(CCN(CC3COc4ccccc4O3)CC2)c2ccccc21 (stereo not shown) [CBK143951]	105
OCCN1CC2(CCN(CC3COc4ccccc4O3)CC2)c2ccccc21 (stereo not shown) [CBK143955]	86.7
NC(=O)CN1CC2(CCN(CC3COc4ccccc4O3)CC2)c2ccccc21 (stereo not shown) [CBK143960]	89.4
CCN(CCCCC1NC(=O)NC1=O)Cc1ccncc1 (stereo not shown) [CBK143967]	89.1
CS(=O)(=O)c1ccc(CN2CCC3(CCN(Cc4ccccc4)CC3)C2)cc1 [CBK144066T]	92.2

SMILES	viability at 28.5 h, 10 µM [%]
Cc1onc(-c2ccccc2)c1CNC(=O)CC1CC1 [CBK144072]	85.4
Cc1onc(-c2ccccc2)c1CNC(=O)c1ccco1 [CBK144074]	90.5
Cc1cc(C(=O)NCc2c(-c3ccccc3)noc2C)n[nH]1 [CBK144076]	91.4
Cc1onc(-c2ccccc2)c1CNC(=O)[C@@H]1CCCN1C [CBK144077]	89.8
Cc1onc(-c2ccccc2)c1CNC(=O)CC1CCCCC1 [CBK144078]	89.1
Cc1onc(-c2ccccc2)c1CNC(=O)c1cccc(C(F)(F)F)c1 [CBK144079]	93.6
Cc1cc(CC(=O)NCc2c(-c3ccccc3)noc2C)on1 [CBK144090]	92.2
CSCCC(=O)NCc1c(-c2ccccc2)noc1C [CBK144092]	85.9
Cc1onc(-c2ccccc2)c1CNC(=O)Cn1cc(C)c(=O)[nH]c1=O [CBK144094]	87.6
COc1cc(C(=O)NCc2c(-c3ccccc3)noc2C)cc(OC)c1OC [CBK144097]	93.9
Cc1onc(-c2ccccc2)c1CNC(=O)c1cncnc1 [CBK144098]	90.6
CC1(C)CC(=O)c2sc(NC(=O)C3COc4ccccc4O3)nc2C1 (stereo not shown) [CBK144104]	112
CC1(C)CC(=O)c2sc(NC(=O)c3ccc(Oc4ccccc4)cc3)nc2C1 [CBK144106]	95.5
CC1(C)CC(=O)c2sc(NC(=O)c3cncnc3)nc2C1 [CBK144107]	101
O=C(CC1CC1)NC(c1ccccc1)c1ccccn1 (stereo not shown) [CBK144108]	103
O=C(NC(c1ccccc1)c1ccccn1)c1ccco1 (stereo not shown) [CBK144109]	106
O=C(Cc1ccc(Cl)c(Cl)c1)NC(c1ccccc1)c1ccccn1 (stereo not shown) [CBK144110]	92.8
CC1CCN(Cc2ccc(-c3nnn(CC(=O)NCc4ccc(S(C)(=O)=O)cc4)n3)cc2)CC1 [CBK144152C]	94.3
CC1CCN(Cc2ccc(-c3nnn(CC(=O)NCc4ccc(O)cc4)n3)cc2)CC1 [CBK144156C]	90.9
CC1CCN(Cc2ccc(-c3nnn(CC(=O)NCc4ccc([N+](=O)[O-])cc4)n3)cc2)CC1 [CBK144176C]	101
O=C(O)CN1CCC(Oc2nccnc2OCc2ccc(Cl)c(Cl)c2)CC1 [CBK144443]	97
CS(=O)(=O)c1ccc(Cn2ccnc(N3CCC(Sc4ccccc4)CC3)c2=O)cc1 [CBK144444]	84.2

SMILES	viability at 28.5 h, 10 µM [%]
CN(C)CCCC(=O)N1CCN(C(=O)c2ccco2)CC1 [CBK144445]	111
O=C(Cc1ccsc1)N1CCN(C(=O)c2ccco2)CC1 [CBK144446]	86
Cc1cc(C(=O)N2CCN(C(=O)c3ccco3)CC2)n[nH]1 [CBK144447]	98.9
O=C(Cc1c[nH]cn1)N1CCN(C(=O)c2ccco2)CC1 [CBK144448]	91.9
CN1CCC[C@H]1C(=O)N1CCN(C(=O)c2ccco2)CC1 [CBK144449]	94.5
O=C(Cc1ccc(Cl)c(Cl)c1)N1CCN(C(=O)c2ccco2)CC1 [CBK144454]	95.2
O=C(/C=C/c1ccc2c(c1)OCO2)N1CCN(C(=O)c2ccco2)CC1 [CBK144459]	95.1
O=C(c1ccc2ncccc2c1)N1CCN(C(=O)c2ccco2)CC1 [CBK144461]	94
O=C1CC(C(=O)N2CCN(C(=O)c3ccco3)CC2)c2ccccc21 (stereo not shown) [CBK144464]	105
Cc1cc(CC(=O)N2CCN(C(=O)c3ccco3)CC2)on1 [CBK144465]	96.3
CSCCC(=O)N1CCN(C(=O)c2ccco2)CC1 [CBK144468]	93.5
Cc1cn(CC(=O)N2CCN(C(=O)c3ccco3)CC2)c(=O)[nH]c1=O [CBK144472]	87.7
CN1CCN(CCC(=O)N2CCN(C(=O)c3ccco3)CC2)CC1 [CBK144481]	89.3
COc1cc(CN2CCNCC2)c2ccn(S(=O)(=O)c3ccccc3Cl)c2c1 [CBK144483T]	91.9
COc1cc(CN2CCNCC2)c2ccn(S(=O)(=O)c3ccccc3C#N)c2c1 [CBK144486T]	89.4
O=C(Cc1ccc(Cl)c(Cl)c1)N1CCN(c2ncccn2)CC1 [CBK144497]	98
O=C(c1ccc2[nH]ccc2c1)N1CCN(c2ncccn2)CC1 [CBK144500]	87
O=C(/C=C/c1ccc2c(c1)OCO2)N1CCN(c2ncccn2)CC1 [CBK144501]	89.5
O=C(C1COc2ccccc2O1)N1CCN(c2ncccn2)CC1 (stereo not shown) [CBK144502]	116
O=C1CC(C(=O)N2CCN(c3ncccn3)CC2)c2ccccc21 (stereo not shown) [CBK144505]	99.2
Cc1cc(CC(=O)N2CCN(c3ncccn3)CC2)on1 [CBK144507]	90
Cc1cn(CC(=O)N2CCN(c3ncccn3)CC2)c(=O)[nH]c1=O [CBK144513]	105

SMILES	viability at 28.5 h, 10 µM [%]
O=C(Cc1ccccc1)N1CCN(c2ncccn2)CC1 [CBK144518]	116
CN1CCN(CCC(=O)N2CCN(c3ncccn3)CC2)CC1 [CBK144520]	84.5
CN(C)CCCC(=O)N1CCN(c2ncccn2)CC1 [CBK144523]	116
O=C(c1ccco1)N1CCN(c2ncccn2)CC1 [CBK144524]	111
O=C(Cc1ccsc1)N1CCN(c2ncccn2)CC1 [CBK144525]	105
Cc1cc(C(=O)N2CCN(c3ncccn3)CC2)n[nH]1 [CBK144526]	111
Cc1ccc(CNC(=O)Cn2nnc(-c3ccc(CN4CCCC(C(F)(F)F)C4)cc3)n2)cc1 (stereo not shown) [CBK144562C]	109
CS(=O)(=O)N1CC2(CCN(CC(=O)c3ccsc3)CC2)c2ccccc21 [CBK144595T]	87
CCNC(=O)N1CC2(CCN(CCC(N)=O)CC2)c2ccccc21 [CBK144598T]	99.6
CCNC(=O)N1CC2(CCN(CC(=O)c3ccsc3)CC2)c2ccccc21 [CBK144601T]	88.6
O=C(CN1CCC2(CC1)CN(C(=O)CO)c1ccccc12)c1ccsc1 [CBK144605T]	86.8
OCCN1CC2(CCN(CCc3c[nH]c4ccccc34)CC2)c2ccccc21 [CBK144607T]	94.2
CCc1cc(NCCc2ccc(=O)[nH]c2)nc(-c2ccc(Br)cc2)n1 [CBK144610C]	93.3
CS(=O)(=O)c1ccc(-c2ccc3c(c2)COC(C2CCN(C(=O)OCc4ccccc4)CC2)O3)cc1 (stereo not shown) [CBK144643]	87.9
O=C(OCc1ccccc1)N1CCC(C2OCc3ccc(-c4ccc(Cl)c(Cl)c4)cc3O2)CC1 (stereo not shown) [CBK144646]	109
CN(C)C(=O)c1ccc(-c2ccc3c(c2)OC(C2CCN(C(=O)OCc4ccccc4)CC2)OC3)cc1 (stereo not shown) [CBK144649]	85.5
O=C(Cc1c(F)cccc1F)Nc1ccc2[nH]ccc2c1 [CBK144712]	120
O=C(Nc1cccc(-c2nnn[nH]2)c1)c1ccc(Cl)c(Cl)c1 [CBK144713]	89.3
CN1CCN(C(=O)c2ccc(-c3cncc(-c4cc5ccccc5[nH]4)n3)c(F)c2)CC1 [CBK144906]	92.8
Cc1nc2ccccc2c(SCCC(=O)O)c1Cc1ccccc1 [CBK144942T]	88.9
NC1=NN(c2ccccc2)C(=O)C1 [CBK144946]	97.3
CN(C)CCN(Cc1ccccc1)C(=O)NCc1cccnc1 [CBK145048]	89.6

Reference: paper PMC12040169 (PLOS Biology, 2025)
